≈ marks a conversion by molar mass, not a printed value.
Legend:
[1] = Solubility; assay type: physicochemical
[2] = tested on: hyperacetylation of tubulin, H3K9 and H3K27; test: Western blot of tubulin and histone H3 hyperacetylation in B16-F10 cells; assay type: cell-based, mouse; conditions: SAHA 100 nM
From the text: B16-F10 cells are responsive to 1,25D analogues[45] and HDACi[46],[47] and are therefore widely used in preclinical studies of melanoma solid tumor growth and metastases.[48] Although curable when treated early, melanoma is fatal when invasive. The American Cancer Society projected 97,610 new invasive melanoma cases in the US in 2023 and 7990 deaths. Current treatment options include chemotherapy, surgery, immunotherapy, or single agents targeting mutated genes such as B-RAF or C-KIT.[49]
After 6 h treatments, 4T1, 4T07, or B16-F10 cells were solubilized in lysis buffer (20 mM Tris, pH 8, 150 mM NaCl, 1% Triton X-100, 3.5 mM SDS, and 13 mM deoxycholic acid), and proteins were separated on a 4–15% Tris/glycine/SDS gel (Bio-Rad). Then, the proteins were transferred to a nitrocellulose membrane, followed by blocking in 5% skim milk in Tris-buffered saline (TBS, 1×) solution. […] Finally, signals were detected using Clarity ECL substrates (Bio-Rad) and a ChemiDoc Imaging System. Changes in protein levels were quantified relative to control using Image Lab software (version 6.0.1) after normalization to GAPDH. […]
Figure S2. […] Quantification of the analyses of hyperacetylation in B16-F10 cells of tubulin, H3K9 and H3K27. […]

[3] = tested on: macrophage infiltration into 4T1 tumors; test: Immunofluorescence of macrophages in 4T1 tumors (F4/80, Arg1); assay type: in vivo, mouse
Experimental: Inhibition of PD-L1 and CD80/CD86 is directly achieved through the immune checkpoint blockade of their receptors using anti-CTLA-4 and anti-PD-1 antibodies.[69],[70]
Primary tumor tissues were fixed using 4% paraformaldehyde and subsequently dehydrated in sucrose solutions ranging from 10 to 30% for approximately 24 h each. The tissues were then embedded in base molds (Fisherbrand—#22363553) containing an optimal cutting temperature (OCT) compound (Fisher Healthcare—#4585). The tissue blocks were placed immediately on dry ice until the OCT compound solidified, and then they were stored at −80 °C. Prior to IF staining, sections of 5–10 μm were obtained using a Leica CM3050 S cryostat and SuperFrost Plus slides (Fisherbrand—#1255015). The tumor sections were then incubated with blocking buffer [phosphate-buffered saline containing 2% bovine serum albumin, 0.3% Triton X-100, 1% FBS, and 10% goat serum] for 1 h at RT. To detect macrophages in the TME, the sections were incubated with a pan-macrophage rat monoclonal antibody F4/80 (Abcam—#6640) diluted in blocking buffer overnight at 4 °C. Sixteen hours later, tissues were washed 3 times with 100 mM Tris–HCl and then incubated with a secondary goat antirat antibody (Invitrogen—#A11081) for 1 h at RT. […] Subsequently, 4′,6-diamidino-2-phenylindole (DAPI; Invitrogen—#D3571) was used to counterstain the nuclei for 5 min at RT. Finally, the slides were mounted using Fluoromount-G medium (Invitrogen—#00495802) and coverslips (Fisher Scientific—#12545E) and imaged with a Zeiss LSM 710 confocal microscope with ×20 objective. Quantification was carried out by QuPath software (version 0.3.2). F4/80+ macrophages and F4/80+ Arg1+ M2 macrophages were classified based on their fluorescence signal.

[4] = biological target: T1, HDAC7 (Homo sapiens, UniProt Q8WUI4); test: Biochemical assay for HDAC inhibition, HDAC7; conditions: read-out: IC50 HDAC7; Table 1, purified enzyme; unit inferred
T1 sequence (Q8WUI4 1-952): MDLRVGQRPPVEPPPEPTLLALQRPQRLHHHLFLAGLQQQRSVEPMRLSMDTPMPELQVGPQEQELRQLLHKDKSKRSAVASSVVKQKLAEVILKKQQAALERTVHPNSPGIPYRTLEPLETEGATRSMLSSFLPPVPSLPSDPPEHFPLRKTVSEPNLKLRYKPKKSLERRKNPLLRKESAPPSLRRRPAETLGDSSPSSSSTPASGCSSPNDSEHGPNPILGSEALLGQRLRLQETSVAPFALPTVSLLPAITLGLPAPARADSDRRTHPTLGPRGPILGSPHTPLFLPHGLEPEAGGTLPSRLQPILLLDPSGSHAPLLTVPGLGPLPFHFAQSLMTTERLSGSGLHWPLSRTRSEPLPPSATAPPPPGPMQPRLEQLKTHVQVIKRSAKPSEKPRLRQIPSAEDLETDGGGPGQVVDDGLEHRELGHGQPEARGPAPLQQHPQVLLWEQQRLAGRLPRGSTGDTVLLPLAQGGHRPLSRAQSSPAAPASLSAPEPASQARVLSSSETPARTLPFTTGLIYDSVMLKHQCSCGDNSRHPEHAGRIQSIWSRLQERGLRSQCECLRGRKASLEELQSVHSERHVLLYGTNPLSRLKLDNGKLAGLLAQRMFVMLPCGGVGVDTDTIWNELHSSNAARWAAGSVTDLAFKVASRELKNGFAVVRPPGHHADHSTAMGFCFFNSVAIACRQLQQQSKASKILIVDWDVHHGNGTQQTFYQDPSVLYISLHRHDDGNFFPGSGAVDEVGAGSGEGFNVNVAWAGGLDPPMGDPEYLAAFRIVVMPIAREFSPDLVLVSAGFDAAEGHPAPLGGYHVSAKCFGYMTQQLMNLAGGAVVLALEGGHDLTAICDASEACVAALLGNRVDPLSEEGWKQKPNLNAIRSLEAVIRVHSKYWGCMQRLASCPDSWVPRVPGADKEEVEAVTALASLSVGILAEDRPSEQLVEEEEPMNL

In the case of `CCC(CC)(c1ccc(C(=O)NCCCCC(=O)NO)cc1)c1ccc(OCC(O)C(C)(C)C)c(C)n1` (stereo not shown) [ZG-126, 4-(3-(5-(2-Hydroxy-3,3-dimethylbutoxy)-6-methylpyridin-2-yl)pentan-3-yl)-N-(5-(hydroxyamino)-5-oxopentyl)benzamide], the solubility [1] is reported as 9.19 µg/mL (≈ 17.9 µM), the “tubulin acetylation and histone hyperacetylation” value [2] is reported as “comparable to or greater than that induced by a saturating concentration of SAHA” and the “reduction of the proportion of M2-polarized immunosuppressive macrophages” value ([3]; 4T1 tumors) is reported as 2 fold. The “total macrophage infiltration into 4T1 tumors (F4/80 staining)” value ([3]; Figure 8B) was “significantly reduced”, the “percentage of anti-inflammatory M2 macrophages (Arg1 staining)” value ([3]; Figure 8C-E) was “most efficacious at reducing the percentage of anti-inflammatory M2 macrophages” and the “reduction of total macrophage infiltration” value ([3]; TNBC (4T1) tumors) was 2 fold. It also gave an IC50 [4] of 55.4 µM.
